The source made the active and inactive calls.
Legend:
[1] = target: Luciferin 4-monooxygenase (Photinus pyralis, UniProt P08659); experiment: Counter Screen for Luciferase-based Assay Positives. [Related pubchem assays: 620, 618, 411 ]
[2] = target: E3 ubiquitin-protein ligase Mdm2/Protein Mdm4 (Homo sapiens, UniProt O15151+Q00987); experiment: Mdm2-MdmX interaction inhibitors, dose response, luminescence detection (AID 504593); assay type: functional
HT-1080 = experiment: cytotoxicity in HT1080 fibrosarcoma cells, cell-based, fluorescence readout (AID 620); assay type: functional; details: Homo sapiens
[3] = target: Aryl hydrocarbon receptor (Homo sapiens, UniProt P35869); experiment: Luminescence-based cell-based high throughput dose response assay for activators of the Aryl Hydrocarbon Receptor (AHR). [Related pubchem assays: 2796 (Primary screen (AHR activators in singlicate)), 2845 (Confirmation screen (AHR activators in triplicate)), 434939 (Counterscreen (PXR activators in triplicate)), 2804 (Summary (AHR activators))]; assay type: ADME
[4] = inhibitors of SNCA 5'UTR-driven reporter translation, confirmation, H4 neuroglioma cells, luminescence (AID 1988); assay type: functional, cell-based
[5] = target: G-protein coupled receptor 55 (Homo sapiens, UniProt Q9Y2T6); experiment: GPR55 antagonists blocking LPI-driven arrestin recruitment, primary screen, imaging, U2OS, beta-arrestin-GFP, LPI agonist (AID 2013); assay type: functional;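 note: antagonist potency measured as reduced agonist-driven arrestin aggregation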
[6] = target: T1, Apoptotic protease-activating factor 1 (Homo sapiens, UniProt O14727); assay type: functional
T1 sequence (O14727 whole entry): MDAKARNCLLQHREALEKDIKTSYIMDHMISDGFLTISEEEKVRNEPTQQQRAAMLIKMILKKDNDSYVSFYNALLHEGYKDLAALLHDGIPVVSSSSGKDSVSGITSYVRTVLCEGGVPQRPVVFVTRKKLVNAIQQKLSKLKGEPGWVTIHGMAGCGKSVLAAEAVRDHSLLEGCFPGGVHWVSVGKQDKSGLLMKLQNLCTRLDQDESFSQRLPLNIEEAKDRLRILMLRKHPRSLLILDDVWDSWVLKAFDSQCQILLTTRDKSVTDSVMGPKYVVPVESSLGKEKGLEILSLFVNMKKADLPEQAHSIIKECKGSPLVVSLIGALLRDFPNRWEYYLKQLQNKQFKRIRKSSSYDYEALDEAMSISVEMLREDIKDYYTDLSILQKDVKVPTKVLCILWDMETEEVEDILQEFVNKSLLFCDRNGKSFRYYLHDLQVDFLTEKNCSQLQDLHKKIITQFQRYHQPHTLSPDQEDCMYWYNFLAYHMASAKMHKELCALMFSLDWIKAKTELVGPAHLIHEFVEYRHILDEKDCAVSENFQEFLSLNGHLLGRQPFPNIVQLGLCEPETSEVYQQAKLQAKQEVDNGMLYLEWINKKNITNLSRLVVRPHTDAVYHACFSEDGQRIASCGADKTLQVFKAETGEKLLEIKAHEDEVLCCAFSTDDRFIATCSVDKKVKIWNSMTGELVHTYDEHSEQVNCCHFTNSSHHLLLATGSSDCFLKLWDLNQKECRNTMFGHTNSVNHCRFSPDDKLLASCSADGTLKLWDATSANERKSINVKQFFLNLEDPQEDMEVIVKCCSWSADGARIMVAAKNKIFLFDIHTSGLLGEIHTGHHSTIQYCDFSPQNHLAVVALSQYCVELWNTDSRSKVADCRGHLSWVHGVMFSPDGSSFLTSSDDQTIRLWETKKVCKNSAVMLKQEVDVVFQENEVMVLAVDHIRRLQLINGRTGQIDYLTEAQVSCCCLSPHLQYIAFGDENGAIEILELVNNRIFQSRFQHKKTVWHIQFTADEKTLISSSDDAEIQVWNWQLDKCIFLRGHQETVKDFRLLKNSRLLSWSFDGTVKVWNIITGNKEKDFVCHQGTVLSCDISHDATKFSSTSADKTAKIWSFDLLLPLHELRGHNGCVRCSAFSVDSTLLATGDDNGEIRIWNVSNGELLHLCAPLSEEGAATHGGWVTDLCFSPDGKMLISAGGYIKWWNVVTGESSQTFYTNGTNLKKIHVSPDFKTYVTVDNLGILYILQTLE

[7] = target: T2, Ubiquitin-conjugating enzyme E2 N (Homo sapiens, UniProt P61088); assay type: functional;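 note: Dose-response confirmation in a TR-FRET assay detecting UBC13-driven polyubiquitin chain formation, inhibition measured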
T2 sequence (P61088 whole entry): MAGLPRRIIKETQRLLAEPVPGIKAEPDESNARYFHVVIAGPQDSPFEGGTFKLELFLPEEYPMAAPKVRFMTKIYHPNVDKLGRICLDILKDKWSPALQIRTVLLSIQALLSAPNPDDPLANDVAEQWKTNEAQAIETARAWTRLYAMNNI

[8] = inhibitors of firefly luciferase expression or activity, dose response, H4 neuroglioma cells, luminescence (AID 1990); assay type: functional, cell-based
[9] = Luminescence Cell-Based Dose Response HTS to Identify Inhibitors of 5'UTR Stem-Loop Driven Prion Protein mRNA Translation in H4 Neuroglioblastoma Cells. [Related pubchem assays: 1827 (Project Summary), 1813 (Primary HTS)]; assay type: functional
[10] = target: 26S proteasome non-ATPase regulatory subunit 14 (Homo sapiens, UniProt O00487); experiment: inhibition of proteasome subunit RPN11 – biochemical, fluorescence polarization, uHTS hits, confirmation (AID 602368); assay type: functional
Aminopeptidase N = target: T3, Aminopeptidase N (Plasmodium falciparum FcB1/Columbia, UniProt O96935); experiment: P. falciparum M1AAP inhibitors, biochemical, fluorogenic H-Leu-NHMec substrate, 1536-well (AID 1445); design: species or system Plasmodium falciparum 3D7, 3D7
T3 sequence (O96935 whole entry): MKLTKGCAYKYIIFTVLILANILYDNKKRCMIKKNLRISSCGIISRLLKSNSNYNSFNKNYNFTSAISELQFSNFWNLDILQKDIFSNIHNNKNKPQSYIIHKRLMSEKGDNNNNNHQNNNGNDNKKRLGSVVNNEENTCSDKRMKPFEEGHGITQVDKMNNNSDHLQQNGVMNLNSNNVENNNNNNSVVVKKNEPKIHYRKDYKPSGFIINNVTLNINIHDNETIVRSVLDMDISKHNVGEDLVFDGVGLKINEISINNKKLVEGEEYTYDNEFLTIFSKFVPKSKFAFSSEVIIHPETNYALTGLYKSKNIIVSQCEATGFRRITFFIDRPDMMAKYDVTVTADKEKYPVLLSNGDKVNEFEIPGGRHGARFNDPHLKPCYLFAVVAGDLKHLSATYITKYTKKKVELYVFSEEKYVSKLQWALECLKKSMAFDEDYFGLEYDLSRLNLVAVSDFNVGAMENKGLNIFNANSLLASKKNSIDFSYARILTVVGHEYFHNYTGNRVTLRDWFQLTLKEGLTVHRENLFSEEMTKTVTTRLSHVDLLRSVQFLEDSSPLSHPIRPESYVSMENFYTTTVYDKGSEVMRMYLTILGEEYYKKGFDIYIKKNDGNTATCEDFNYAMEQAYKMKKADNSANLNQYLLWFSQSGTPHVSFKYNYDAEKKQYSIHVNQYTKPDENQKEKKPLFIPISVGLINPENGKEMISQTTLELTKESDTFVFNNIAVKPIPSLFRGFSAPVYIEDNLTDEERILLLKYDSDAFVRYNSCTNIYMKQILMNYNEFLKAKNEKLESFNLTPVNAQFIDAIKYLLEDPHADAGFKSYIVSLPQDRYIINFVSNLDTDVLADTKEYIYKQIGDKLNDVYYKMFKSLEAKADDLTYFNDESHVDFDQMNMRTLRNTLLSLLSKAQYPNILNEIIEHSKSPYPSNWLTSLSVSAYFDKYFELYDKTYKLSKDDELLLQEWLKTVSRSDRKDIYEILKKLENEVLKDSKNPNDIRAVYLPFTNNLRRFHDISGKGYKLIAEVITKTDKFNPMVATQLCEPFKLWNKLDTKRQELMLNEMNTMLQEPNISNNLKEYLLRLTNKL

[11] = target: 72 kDa type IV collagenase (Homo sapiens, UniProt P08253); experiment: Dose Response validation of uHTS RPN11 inhibitor hits using a MMP-2 Fluorescence assay.; assay type: functional
Phospholipase A2 = Phospholipase A2 (Homo sapiens, UniProt P04054); assay type: functional;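 note: confirmatory dose-response counterscreen on phospholipase A2, testing hits that came from an ultra-high-throughput screen for ATG4B inhibitors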
Cysteine protease ATG4B = target: T4, Cysteine protease ATG4B (Homo sapiens, UniProt Q9Y4P1); assay type: functional;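 note: Fluorescence-based dose-response confirmation assay measuring inhibition of ATG4B activity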
T4 sequence (Q9Y4P1 whole entry): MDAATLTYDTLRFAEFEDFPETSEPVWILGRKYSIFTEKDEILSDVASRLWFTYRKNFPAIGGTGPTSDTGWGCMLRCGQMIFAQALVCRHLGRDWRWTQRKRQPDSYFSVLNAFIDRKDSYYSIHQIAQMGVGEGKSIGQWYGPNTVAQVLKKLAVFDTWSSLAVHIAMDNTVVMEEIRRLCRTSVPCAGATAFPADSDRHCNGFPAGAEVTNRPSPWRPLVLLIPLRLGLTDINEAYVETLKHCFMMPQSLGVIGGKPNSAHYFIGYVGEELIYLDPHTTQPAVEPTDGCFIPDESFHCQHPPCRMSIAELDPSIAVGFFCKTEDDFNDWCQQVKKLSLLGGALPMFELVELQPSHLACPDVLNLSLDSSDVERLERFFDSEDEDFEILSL

[12] = target: T5, Histone-lysine N-methyltransferase NSD2 (Homo sapiens, UniProt O96028); assay type: biochemical
T5 sequence (O96028 whole entry): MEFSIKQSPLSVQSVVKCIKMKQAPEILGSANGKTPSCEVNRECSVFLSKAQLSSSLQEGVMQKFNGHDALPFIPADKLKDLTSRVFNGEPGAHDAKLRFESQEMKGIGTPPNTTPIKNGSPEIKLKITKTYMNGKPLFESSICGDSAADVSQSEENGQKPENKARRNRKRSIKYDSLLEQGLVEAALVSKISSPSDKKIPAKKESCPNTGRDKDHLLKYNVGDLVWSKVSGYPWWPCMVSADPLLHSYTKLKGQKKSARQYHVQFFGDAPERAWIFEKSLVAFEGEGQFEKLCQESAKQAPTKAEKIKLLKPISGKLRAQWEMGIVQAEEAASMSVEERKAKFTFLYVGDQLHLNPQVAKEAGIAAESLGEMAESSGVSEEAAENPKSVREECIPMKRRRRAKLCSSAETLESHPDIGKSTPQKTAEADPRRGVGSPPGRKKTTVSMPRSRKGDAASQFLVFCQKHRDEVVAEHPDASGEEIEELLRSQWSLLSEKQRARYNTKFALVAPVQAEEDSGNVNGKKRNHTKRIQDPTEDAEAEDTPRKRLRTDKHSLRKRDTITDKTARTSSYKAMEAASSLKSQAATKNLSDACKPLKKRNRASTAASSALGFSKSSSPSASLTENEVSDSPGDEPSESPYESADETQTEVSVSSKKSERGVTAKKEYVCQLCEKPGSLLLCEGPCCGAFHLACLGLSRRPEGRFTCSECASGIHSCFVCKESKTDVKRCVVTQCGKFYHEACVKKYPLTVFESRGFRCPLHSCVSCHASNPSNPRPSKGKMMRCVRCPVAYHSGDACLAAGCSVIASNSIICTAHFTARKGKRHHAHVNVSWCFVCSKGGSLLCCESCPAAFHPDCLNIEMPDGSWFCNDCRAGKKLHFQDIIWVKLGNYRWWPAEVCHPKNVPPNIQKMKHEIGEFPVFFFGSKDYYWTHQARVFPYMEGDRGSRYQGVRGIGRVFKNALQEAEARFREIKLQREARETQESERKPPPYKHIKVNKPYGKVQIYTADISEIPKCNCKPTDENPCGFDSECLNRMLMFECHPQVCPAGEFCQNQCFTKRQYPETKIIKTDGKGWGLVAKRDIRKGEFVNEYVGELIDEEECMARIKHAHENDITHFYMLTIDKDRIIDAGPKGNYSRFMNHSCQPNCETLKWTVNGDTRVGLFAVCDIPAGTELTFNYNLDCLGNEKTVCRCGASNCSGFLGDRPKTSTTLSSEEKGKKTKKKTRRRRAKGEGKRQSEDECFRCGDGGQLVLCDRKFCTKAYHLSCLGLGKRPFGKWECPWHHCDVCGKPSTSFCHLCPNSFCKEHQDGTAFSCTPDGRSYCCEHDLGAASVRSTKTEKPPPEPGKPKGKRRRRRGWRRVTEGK

[13] = target: T6, Voltage-gated N-type calcium channel alpha-1B subunit/Amyloid beta A4 precursor protein-binding family A member 1 (Homo sapiens, UniProt Q00975+Q02410); assay type: protein assay
[14] = target: T6, Voltage-gated N-type calcium channel alpha-1B subunit/Amyloid beta A4 precursor protein-binding family A member 1; assay type: protein assay; remark: listed apart in the source
Prothrombin = Prothrombin (Bos taurus, UniProt P00735); experiment: thrombin inhibition, dose response, biochemical, fluorescence polarization, uHTS hits (AID 602369); assay type: functional

T6 sequence (Q00975 whole entry): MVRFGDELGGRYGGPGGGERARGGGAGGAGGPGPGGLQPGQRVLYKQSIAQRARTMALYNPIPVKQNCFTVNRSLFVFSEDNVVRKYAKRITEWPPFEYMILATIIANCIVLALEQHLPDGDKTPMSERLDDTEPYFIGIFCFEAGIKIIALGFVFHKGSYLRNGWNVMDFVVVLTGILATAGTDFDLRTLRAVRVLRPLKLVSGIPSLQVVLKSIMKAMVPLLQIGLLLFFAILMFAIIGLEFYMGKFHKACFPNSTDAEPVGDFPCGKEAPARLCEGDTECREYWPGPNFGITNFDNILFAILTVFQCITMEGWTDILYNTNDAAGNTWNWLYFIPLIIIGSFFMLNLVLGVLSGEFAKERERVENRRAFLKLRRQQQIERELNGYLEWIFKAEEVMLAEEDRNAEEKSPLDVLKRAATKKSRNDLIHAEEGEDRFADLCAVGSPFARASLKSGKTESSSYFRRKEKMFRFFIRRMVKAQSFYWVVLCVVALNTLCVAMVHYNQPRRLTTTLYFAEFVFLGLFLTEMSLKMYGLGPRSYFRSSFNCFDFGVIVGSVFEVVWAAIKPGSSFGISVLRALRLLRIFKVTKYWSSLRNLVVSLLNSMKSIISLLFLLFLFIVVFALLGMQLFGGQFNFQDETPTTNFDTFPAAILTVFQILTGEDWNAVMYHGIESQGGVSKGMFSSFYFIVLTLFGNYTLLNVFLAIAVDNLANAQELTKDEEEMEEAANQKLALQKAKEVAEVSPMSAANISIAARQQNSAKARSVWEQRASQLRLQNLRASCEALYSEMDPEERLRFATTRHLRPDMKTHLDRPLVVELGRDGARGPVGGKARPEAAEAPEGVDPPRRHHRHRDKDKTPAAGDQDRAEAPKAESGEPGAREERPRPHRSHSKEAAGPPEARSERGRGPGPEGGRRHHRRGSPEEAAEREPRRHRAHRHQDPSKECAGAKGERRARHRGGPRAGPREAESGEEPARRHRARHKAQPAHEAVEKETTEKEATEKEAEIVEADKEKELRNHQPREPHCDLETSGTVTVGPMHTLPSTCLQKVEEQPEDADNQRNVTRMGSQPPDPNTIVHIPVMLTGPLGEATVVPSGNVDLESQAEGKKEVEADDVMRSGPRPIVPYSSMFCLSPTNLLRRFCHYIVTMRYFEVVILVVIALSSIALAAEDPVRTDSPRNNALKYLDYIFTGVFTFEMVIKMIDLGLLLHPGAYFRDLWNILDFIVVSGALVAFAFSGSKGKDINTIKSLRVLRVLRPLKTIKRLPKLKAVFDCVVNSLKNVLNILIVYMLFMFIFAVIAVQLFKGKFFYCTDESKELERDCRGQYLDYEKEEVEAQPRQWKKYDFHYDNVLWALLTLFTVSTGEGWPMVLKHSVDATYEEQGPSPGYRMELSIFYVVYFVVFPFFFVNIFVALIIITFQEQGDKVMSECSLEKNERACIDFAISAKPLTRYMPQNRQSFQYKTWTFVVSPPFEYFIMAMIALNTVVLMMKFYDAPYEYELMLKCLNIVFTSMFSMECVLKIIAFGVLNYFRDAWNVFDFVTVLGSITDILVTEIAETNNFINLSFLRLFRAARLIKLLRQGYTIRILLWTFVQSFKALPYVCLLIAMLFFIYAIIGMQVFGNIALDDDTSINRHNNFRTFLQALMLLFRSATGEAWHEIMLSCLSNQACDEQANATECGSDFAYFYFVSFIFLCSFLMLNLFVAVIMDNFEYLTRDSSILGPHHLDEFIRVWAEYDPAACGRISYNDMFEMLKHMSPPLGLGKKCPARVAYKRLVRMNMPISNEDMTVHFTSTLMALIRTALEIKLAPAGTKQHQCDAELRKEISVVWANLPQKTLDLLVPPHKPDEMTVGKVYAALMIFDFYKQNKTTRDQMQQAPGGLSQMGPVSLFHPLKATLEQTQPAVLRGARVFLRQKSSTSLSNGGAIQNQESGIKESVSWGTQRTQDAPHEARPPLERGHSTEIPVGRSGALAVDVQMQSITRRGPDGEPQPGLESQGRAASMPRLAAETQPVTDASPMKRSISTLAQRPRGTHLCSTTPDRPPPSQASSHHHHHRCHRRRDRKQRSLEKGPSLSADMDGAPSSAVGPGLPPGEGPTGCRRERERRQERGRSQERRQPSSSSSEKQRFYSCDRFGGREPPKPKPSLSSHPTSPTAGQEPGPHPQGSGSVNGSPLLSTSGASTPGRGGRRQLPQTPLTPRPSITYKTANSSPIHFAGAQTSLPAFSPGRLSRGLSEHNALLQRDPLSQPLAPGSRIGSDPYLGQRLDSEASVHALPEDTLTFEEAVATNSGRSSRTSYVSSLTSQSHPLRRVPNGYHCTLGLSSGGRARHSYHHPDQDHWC
T6 sequence (Q02410 whole entry): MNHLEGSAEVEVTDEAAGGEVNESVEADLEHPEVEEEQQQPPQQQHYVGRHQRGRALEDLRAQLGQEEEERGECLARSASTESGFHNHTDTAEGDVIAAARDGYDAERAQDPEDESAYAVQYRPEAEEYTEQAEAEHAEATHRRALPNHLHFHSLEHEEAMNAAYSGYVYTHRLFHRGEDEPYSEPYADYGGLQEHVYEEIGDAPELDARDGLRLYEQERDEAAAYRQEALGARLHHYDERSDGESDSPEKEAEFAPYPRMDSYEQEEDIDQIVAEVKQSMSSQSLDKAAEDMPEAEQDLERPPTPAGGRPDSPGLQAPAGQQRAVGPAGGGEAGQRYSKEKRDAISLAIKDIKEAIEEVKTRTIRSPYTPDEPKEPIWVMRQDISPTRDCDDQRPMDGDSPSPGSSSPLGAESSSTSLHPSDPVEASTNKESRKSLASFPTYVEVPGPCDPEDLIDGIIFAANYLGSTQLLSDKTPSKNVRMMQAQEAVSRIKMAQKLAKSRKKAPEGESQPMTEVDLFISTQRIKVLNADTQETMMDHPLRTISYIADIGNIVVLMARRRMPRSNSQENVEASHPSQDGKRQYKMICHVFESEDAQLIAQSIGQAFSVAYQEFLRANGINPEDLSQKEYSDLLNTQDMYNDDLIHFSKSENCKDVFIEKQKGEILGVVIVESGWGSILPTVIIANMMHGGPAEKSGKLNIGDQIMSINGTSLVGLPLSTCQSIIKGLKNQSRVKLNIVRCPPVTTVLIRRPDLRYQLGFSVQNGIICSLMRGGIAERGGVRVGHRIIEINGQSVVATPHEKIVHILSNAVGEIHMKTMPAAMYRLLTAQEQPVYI
E3 ubiquitin-protein ligase Mdm2/Protein Mdm4, sequence (Q00987 whole entry): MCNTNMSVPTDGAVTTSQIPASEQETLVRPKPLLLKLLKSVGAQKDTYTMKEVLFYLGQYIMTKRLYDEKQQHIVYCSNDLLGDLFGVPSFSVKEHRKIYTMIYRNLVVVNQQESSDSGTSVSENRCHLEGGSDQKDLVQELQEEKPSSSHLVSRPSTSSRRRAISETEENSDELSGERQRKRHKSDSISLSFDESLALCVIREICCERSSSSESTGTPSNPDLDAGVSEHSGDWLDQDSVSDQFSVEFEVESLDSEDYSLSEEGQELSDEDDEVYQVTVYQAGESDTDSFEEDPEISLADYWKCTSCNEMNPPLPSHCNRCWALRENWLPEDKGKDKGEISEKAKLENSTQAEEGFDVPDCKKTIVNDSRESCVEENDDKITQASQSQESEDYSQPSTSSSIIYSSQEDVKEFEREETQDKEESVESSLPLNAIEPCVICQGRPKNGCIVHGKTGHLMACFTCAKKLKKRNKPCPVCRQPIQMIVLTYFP
E3 ubiquitin-protein ligase Mdm2/Protein Mdm4, sequence (O15151 whole entry): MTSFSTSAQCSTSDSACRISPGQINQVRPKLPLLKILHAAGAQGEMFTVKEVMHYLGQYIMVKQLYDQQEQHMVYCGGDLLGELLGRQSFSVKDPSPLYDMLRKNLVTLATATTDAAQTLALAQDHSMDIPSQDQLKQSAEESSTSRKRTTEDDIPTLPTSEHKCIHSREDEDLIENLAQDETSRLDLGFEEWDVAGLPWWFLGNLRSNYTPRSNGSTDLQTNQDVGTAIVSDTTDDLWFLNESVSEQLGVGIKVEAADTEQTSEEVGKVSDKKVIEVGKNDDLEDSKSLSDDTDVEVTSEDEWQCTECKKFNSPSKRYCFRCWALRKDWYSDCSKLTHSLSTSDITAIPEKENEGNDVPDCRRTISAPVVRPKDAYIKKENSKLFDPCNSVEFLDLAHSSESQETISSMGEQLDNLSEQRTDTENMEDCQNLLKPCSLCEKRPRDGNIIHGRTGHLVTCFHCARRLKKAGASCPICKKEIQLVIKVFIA
72 kDa type IV collagenase, sequence (P08253 whole entry): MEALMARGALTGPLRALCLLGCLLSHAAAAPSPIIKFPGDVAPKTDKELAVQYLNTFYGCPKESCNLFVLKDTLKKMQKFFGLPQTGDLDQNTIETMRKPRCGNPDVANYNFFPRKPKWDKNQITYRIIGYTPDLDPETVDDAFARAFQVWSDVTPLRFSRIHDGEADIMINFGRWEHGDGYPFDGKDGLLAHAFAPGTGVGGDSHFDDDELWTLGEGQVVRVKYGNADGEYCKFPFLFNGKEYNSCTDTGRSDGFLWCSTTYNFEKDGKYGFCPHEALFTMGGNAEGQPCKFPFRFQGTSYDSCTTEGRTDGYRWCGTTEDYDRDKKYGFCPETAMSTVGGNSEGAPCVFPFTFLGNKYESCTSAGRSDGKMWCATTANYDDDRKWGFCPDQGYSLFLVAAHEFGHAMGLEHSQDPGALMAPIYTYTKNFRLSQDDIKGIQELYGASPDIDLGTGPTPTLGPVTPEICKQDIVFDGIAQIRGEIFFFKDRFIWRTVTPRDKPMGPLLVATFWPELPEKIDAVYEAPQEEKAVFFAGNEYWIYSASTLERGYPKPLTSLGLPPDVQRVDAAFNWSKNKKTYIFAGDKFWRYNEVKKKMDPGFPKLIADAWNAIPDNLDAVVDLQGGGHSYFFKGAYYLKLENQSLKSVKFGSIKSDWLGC
Phospholipase A2, sequence (P04054 whole entry): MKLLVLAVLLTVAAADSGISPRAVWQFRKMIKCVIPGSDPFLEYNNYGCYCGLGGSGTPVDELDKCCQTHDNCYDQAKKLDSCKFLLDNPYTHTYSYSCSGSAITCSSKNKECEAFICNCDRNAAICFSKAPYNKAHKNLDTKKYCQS

For `Cc1nc(NC2=NCN(CCCN3CCOCC3)CN2)nc2c(C)cccc12`, the EC50 [1] was 3.36 µM (active), the IC50 [2] was 3.92 µM (active) and the EC50 (HT-1080) was 51.5 µM (not active). The EC50 [3] was 12.1 µM (not active).

In the case of `CN1Cc2c(N3CCOCC3)nc3sc(C(=O)c4ccc(Br)cc4)c(N)c3c2CC1(C)C`, the EC50 [4] was 8.58 µM (active), the IC50 [5] was 3.9 µM (active) and the IC50 [6] was 15.8 µM (active). The IC50 [7] was > 20 µM (inactive), the EC50 [8] was 10.4 µM (active) and the EC50 [9] was 11.6 µM (active).

In the case of `CCc1ccc(-n2cccc2/C=C2/C(=N)N3C(=NC2=O)SN=C3S(C)(=O)=O)cc1`, the IC50 [10] was 21.8 µM (active), the IC50 (Aminopeptidase N) was 34.4 µM (active) and the IC50 [11] was 30.9 µM (active). The IC50 (Phospholipase A2) was 12 µM (active), the IC50 (Cysteine protease ATG4B) was 11.2 µM (active) and the AC50 [12] was 11.5 µM (active). The IC50 [13] was 7.3 µM (active), the IC50 [14] was > 50 µM (inactive) and the IC50 (Prothrombin) was 45.8 µM (active).

— ChEMBL document CHEMBL1201862, “PubChem BioAssay data set” (2004)
